For 13 compounds, IC50 and melting point results are on record in patent US8067615B2, “Sulphonylpyrroles” (4SC AG, priority 2004, dated 2011).

Data set [1] deals with HeLa cervical carcinoma cells. Nature of the data set: Cellular cytotoxicity assay (Alamar Blue / Resazurin). In kind it is cell-based. Particulars: Homo sapiens, 48 hours incubation. Here is the method:
The anti-proliferative activity of the histone deacetylase inhibitory compounds as described herein, was evaluated with the HeLa cervical carcinoma cell line (ATCC CCL2) using the Alamar Blue (Resazurin) cell viability assay (O'Brien et al. Eur J Biochem 267, 5421-5426, 2000). Resazurin is reduced to the fluorescent resorufin by cellular dehydrogenase activity, correlating with viable, proliferating cells. Test compounds were dissolved as 10 mM solutions in dimethylsulfoxide (DMSO) and subsequently diluted in semi-logarithmic steps. HeLa cells were seeded into 96 well flat bottom plates at a density of 3000 cells per well in a volume of […] per well. 24 hours after seeding 1 μl each of the compound dilutions were added into each well of the 96 Well plate. Each compound dilution was tested as quadruplicates. Wells containing untreated control cells were filled with 200 μl DMEM medium containing 0.5% v:v DMSO. The cells were then incubated with the substances for 48 hours at 37° C. in a humidified atmosphere containing 5% carbon dioxide. To determine the viability of the cells, 20 μl of an Resazurin solution (Sigma; 90 mg/l) were added. After 4 hours incubation at 37° C. the fluorescence was measured at an […] of 544 nm and an emission of 590 nm. For the calculation of the cell viability the emission value from untreated cells was set as 100% viability and the emission rates of treated cells were set in relation to the values of untreated cells. Viabilities were expressed as % values. The corresponding IC50 values of the compounds for cytotoxic activity are determined from the concentration-effect curves by means of non-linear regression.

`O=C(/C=C/c1ccn(S(=O)(=O)c2ccc(CNCc3cccnc3)cc2)c1)NO` [Compound 11, (E)-N-Hydroxy-3-[1-(4-{[(pyridin-3-ylmethyl)-amino]-methyl}-benzenesulfonyl)-1H-pyrrol-3-yl]-acrylamide]: the IC50 – broadly, the point on the concentration scale where inhibition reaches its midpoint – in data set [1] was in the range of 70 to 5000 nM.

Turning to `O=C(/C=C/c1ccn(S(=O)(=O)c2ccc(CNCc3c[nH]c4ccccc34)cc2)c1)NO` [Compound 12, (E)-N-Hydroxy-3-[1-(4-{[(1H-indol-3-ylmethyl)-amino]-methyl}-benzenesulfonyl)-1H-pyrrol-3-yl]-acrylamide], the IC50 in data set [1] was in the range of 70 to 5000 nM.

Compound `O=C(/C=C/c1ccn(S(=O)(=O)c2ccc(CNCc3ccccc3)cc2)c1)NO` [Compound 13, (E)-3-{1-[4-(Benzylamino-methyl)-benzenesulfonyl]-1H-pyrrol-3-yl}-N-hydroxy-acrylamide] gave an IC50 in data set [1] of 70 to 5000 nM.

For the compound `CC(C)CNCc1ccc(S(=O)(=O)n2ccc(/C=C/C(=O)NO)c2)cc1` [Compound 14, (E)-N-Hydroxy-3-{1-[4-(isobutylamino-methyl)-benzenesulfonyl]-1H-pyrrol-3-yl}-acrylamide], the IC50 in data set [1] lay within 70 to 5000 nM.

`O=C(/C=C/c1ccn(S(=O)(=O)c2ccc(CNCc3ccc4[nH]ccc4c3)cc2)c1)NO` [Compound 15, (E)-N-Hydroxy-3-[1-(4-{[(1H-indol-5-ylmethyl)-amino]-methyl}-benzenesulfonyl)-1H-pyrrol-3-yl]-acrylamide] came in with an IC50 in data set [1] of 70 to 5000 nM.

Take `O=C(/C=C/c1ccn(S(=O)(=O)c2ccc(CNCc3ccncc3)cc2)c1)NO` [Compound 16, (E)-N-Hydroxy-3-[1-(4-{[(pyridin-4-ylmethyl)-amino]-methyl}-benzenesulfonyl)-1H-pyrrol-3-yl]-acrylamide]: the IC50 in data set [1] was in the range of 70 to 5000 nM.

On to `NCc1ccc(S(=O)(=O)n2ccc(/C=C/C(=O)NO)c2)cc1` [Compound 17, (E)-3-[1-(4-Aminomethyl-benzenesulfonyl)-1H-pyrrol-3-yl]-N-hydroxy-acrylamide], for which the melting point – broadly, the temperature, or range, at which the solid turns liquid – was in the range of 227 to 228.6 °C. The compound also had an IC50 in data set [1] of 70 to 5000 nM.

Compound `O=C(/C=C/c1ccn(S(=O)(=O)c2ccc(-c3ccncc3)cc2)c1)NO` [Compound 18, (E)-N-Hydroxy-3-[1-(4-pyridin-4-yl-benzenesulfonyl)-1H-pyrrol-3-yl]-acrylamide] gave a melting point of 219.3 to 221.4 °C. The same compound had an IC50 in data set [1] of 70 to 5000 nM.

For `O=C(/C=C/c1ccn(S(=O)(=O)c2ccc(-c3cn[nH]c3)cc2)c1)NO` [Compound 19, (E)-N-Hydroxy-3-{1-[4-(1H-pyrazol-4-yl)-benzenesulfonyl]-1H-pyrrol-3-yl}-acrylamide], the melting point was 203.8 to 211.9 °C. Further, the IC50 in data set [1] lay within 70 to 5000 nM.

Regarding `Nc1ccccc1NC(=O)/C=C/c1ccn(S(=O)(=O)c2ccc(-c3ccncc3)cc2)c1` [Compound 20, (E)-N-(2-Amino-phenyl)-3-[1-(4-pyridin-4-yl-benzenesulfonyl)-1H-pyrrol-3-yl]-acrylamide], the melting point is 244.2 to 246.5 °C. The same compound showed an IC50 in data set [1] of 70 to 5000 nM.

In data set [1], `O=C(/C=C/c1ccn(S(=O)(=O)c2ccc(-c3ccccn3)s2)c1)NO` [Compound 24, (E)-N-Hydroxy-3-[1-(5-pyridin-2-yl-thiophene-2-sulfonyl)-1H-pyrrol-3-yl]-acrylamide] had an IC50 of 70 to 5000 nM.

Turning to `Nc1ccccc1NC(=O)/C=C/c1ccn(S(=O)(=O)c2ccc(-c3ccccn3)s2)c1` [Compound 26, (E)-N-(2-Amino-phenyl)-3-[1-(5-pyridin-2-yl-thiophene-2-sulfonyl)-1H-pyrrol-3-yl]-acrylamide], the IC50 in data set [1] lay in the range of 70 to 5000 nM.

In data set [1], `O=C(/C=C/c1ccn(S(=O)(=O)c2ccc(CN(CCO)CCc3cc4ccccc4[nH]3)cc2)c1)NO` [Compound 28, (E)-N-Hydroxy-3-{1-[4-({(2-hydroxy-ethyl)-[2-(1H-indol-2-yl)-ethyl]-amino}-methyl)-benzenesulfonyl]-1H-pyrrol-3-yl}-acrylamide] registered an IC50 of 70 to 5000 nM.
